According to patent US8513418B2, “Substituted bicyclic methyl amine derivatives as sphingosine-1 phosphate receptors modulators” (Allergan, Inc., priority 2011, dated 2013):

System: female C57BL6 mice
Assay: Lymphopenia assay in mice (in vivo blood lymphocyte depletion)
Conditions: after 24 hours; after dosing; FIG. 1 legend
Protocol: Test drugs are prepared in a solution containing 3% (w/v) 2-hydroxy propyl β-cyclodextrin (HPBCD) and 1% DMSO to a final concentration of 1 mg/ml, and subcutaneously injected to female C57BL6 mice (CHARLES RIVERS) weighing 20-25 g at the dose of 10 mg/Kg. Blood samples are obtained by puncturing the submandibular skin with a Goldenrod animal lancet at 5, 24, 48, 72, and 96 hrs post drug application. Blood is collected into microvettes (SARSTEDT) containing EDTA tripotassium salt. Lymphocytes in blood samples are counted using a HEMAVET Multispecies Hematology System, HEMAVET HV950FS (Drew Scientific Inc.). (Hale, J. et al Bioorg. & Med. Chem. Lett. 14 (2004) 3351).
A lymphopenia assay in mice, as previously described, was employed to measure the in vivo blood lymphocyte depletion after dosing Compound 5 (FIG. 1). These S1P agonists (or modulators) are useful for S1P-related diseases, and exemplified by the lymphopenia in vivo response. In general, test compounds were prepared in a solution containing 3% (w/v) 2-hydroxy propyl β-cyclodextrin (HPBCD) and 1% DMSO to a final concentration of 1 mg/ml, and subcutaneously injected to female C57BL6 mice (CHARLES RIVERS) weighing 20-25 g at the dose of 10 mg/Kg or 2 mg/Kg. […] Lymphocytes in blood samples were counted using a HEMAVET Multispecies Hematology System, HEMAVET HV950FS (Drew Scientific Inc.).

| Compound | lymphocyte count |
| --- | --- |
| O=P(O)(O)CCCNCc1ccc(CCCCCCCc2ccccc2)c2cccnc12 [Compound 5, [3-({[5-(7-phenylheptyl)quinolin-8-yl]methyl}amino)propyl]phosphonic acid] | lowered lymphocyte count |

Same assay, conditions: after 24 hours; subcutaneously injected, 10 mg/Kg or 2 mg/Kg; FIG. 1

| Compound | number of lymphocytes |
| --- | --- |
| O=P(O)(O)CCCNCc1ccc(CCCCCCCc2ccccc2)c2cccnc12 [Compound 5, [3-({[5-(7-phenylheptyl)quinolin-8-yl]methyl}amino)propyl]phosphonic acid] | < 1 10^3/μL blood |

Target: T1, human S1P1 receptor (Homo sapiens, UniProt P21453)
T1 construct: expressed in transfected cells; membranes of cells stably expressing the receptor
T1 sequence (P21453 whole entry): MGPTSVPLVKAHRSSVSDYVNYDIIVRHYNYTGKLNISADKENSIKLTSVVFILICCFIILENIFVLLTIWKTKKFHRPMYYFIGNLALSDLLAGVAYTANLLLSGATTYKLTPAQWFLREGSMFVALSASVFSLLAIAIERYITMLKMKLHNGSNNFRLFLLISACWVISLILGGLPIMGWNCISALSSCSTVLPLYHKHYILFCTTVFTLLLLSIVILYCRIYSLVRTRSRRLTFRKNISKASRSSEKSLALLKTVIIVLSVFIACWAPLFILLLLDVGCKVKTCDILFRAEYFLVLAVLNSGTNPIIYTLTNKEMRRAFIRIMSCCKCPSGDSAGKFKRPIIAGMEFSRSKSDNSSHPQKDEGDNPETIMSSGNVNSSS
Assay: GTP γ35S binding assay for S1P1 activity
Assay type: biochemical
Conditions: membranes of cells stably expressing the S1P1 receptor
Protocol: Novel compounds were synthesized and tested for S1P1 activity using the GTP γ^35S binding assay. These compounds may be assessed for their ability to activate or block activation of the human S1P1 receptor in cells stably expressing the S1P1 receptor. GTP γ^35S binding was measured in the medium containing (mM) HEPES 25, pH 7.4, MgCl2 10, NaCl 100, dithitothreitol 0.5, digitonin 0.003%, 0.2 nM GTP γ^35S, and 5 μg membrane protein in a volume of 150 μl. Test compounds were included in the concentration range from 0.08 to 5,000 nM unless indicated otherwise. Membranes were incubated with 100 μM 5′-adenylylimmidodiphosphate for 30 min, and subsequently with 10 μM GDP for 10 min on ice. Drug solutions and membrane were mixed, and then reactions were initiated by adding GTP γ^35S and continued for 30 min at 25° C. Reaction mixtures were filtered over Whatman GF/B filters under vacuum, and washed three times with 3 mL of ice-cold buffer (HEPES 25, pH7.4, MgCl2 10 and NaCl 100). Filters were dried and mixed with scintillant, and counted for ^35S activity using a 8-counter. Agonist-induced GTP γ^35S binding was obtained by subtracting that in the absence of agonist. Binding data were analyzed using a non-linear regression method. In case of antagonist assay, the reaction mixture contained 10 nM […] in the presence of test antagonist at concentrations ranging from 0.08 to 5000 nM.
Activity potency: S1P1 receptor from GTP γ^35S: nM, (EC50).

| Compound | EC50 [nM] |
| --- | --- |
| COc1cccc(CCCCCCc2ccc(CNCCCP(=O)(O)O)c3ncccc23)c1 [Compound 13, {3-[({5-[6-(3-methoxyphenyl)hexyl]quinolin-8-yl}methyl)amino]propyl}phosphonic acid] | 7.68 |
| O=P(O)(O)CCCNCc1ccc(C#CCCCc2ccccc2)c2cccnc12 [Compound 8, [3-({[5-(5-phenylpent-1-yn-1-yl)quinolin-8-yl]methyl}amino)propyl]phosphonic acid] | 543 |
| O=P(O)(O)CCCNCc1ccc(C#CCCCCc2ccccc2)c2ccccc12 [Compound 16, [3-({[4-(6-phenylhex-1-yn-1-yl)-1-naphthyl]methyl}amino)propyl]phosphonic acid] | 4.88 |
| O=P(O)(O)CCCNCc1ccc(CCCCCCc2ccccc2)c2cccnc12 [Compound 7, [3-({[5-(6-phenylhexyl)quinolin-8-yl]methyl}amino)propyl]phosphonic acid] | 5.45 |
| O=P(O)(O)OCCNCc1ccc(CCCCCCc2ccccc2)c2ccccc12 [Compound 18, 2-({[4-(6-phenylhexyl)-1-naphthyl]methyl}amino)ethyl dihydrogen phosphate] | 55.5 |
| COc1cccc(CCCCC#Cc2ccc(CNCCCP(=O)(O)O)c3ncccc23)c1 [Compound 12, {3-[({5-[6-(3-methoxyphenyl)hex-1-yn-1-yl]quinolin-8-yl}methyl)amino]propyl}phosphonic acid] | 18.3 |
| O=P(O)(O)OCCNCc1ccc(CCCCCCc2ccccc2)c2cccnc12 [Compound 11, 2-({[5-(6-phenylhexyl)quinolin-8-yl]methyl}amino)ethyl dihydrogen phosphate] | 2.19 |
| O=P(O)(O)CCCNCc1ccc(C#CCCCCCc2ccccc2)c2cccnc12 [Compound 3, [3-({[5-(7-phenylhept-1-yn-1-yl)quinolin-8-yl]methyl}amino)propyl]phosphonic acid] | 94 |
| O=P(O)(O)CCCNCc1ccc(C#CCCCCc2ccccc2)c2cccnc12 [Compound 4, [3-({[5-(6-phenylhex-1-yn-1-yl)quinolin-8-yl]methyl}amino)propyl]phosphonic acid] | 204 |

More lines, now with the values ahead:

| EC50 [nM] | Compound |
| --- | --- |
| 3.39 | CCCCCCCCC#Cc1ccc(CNCCCP(=O)(O)O)c2ncccc12 [Compound 2, (3-{[(5-dec-1-yn-1-ylquinolin-8-yl)methyl]amino}propyl)phosphonic acid] |
| 1.53 | CCCCCCCCCCc1ccc(CNCCCP(=O)(O)O)c2ncccc12 [Compound 1, (3-{[(5-decylquinolin-8-yl)methyl]amino}propyl)phosphonic acid] |
| 173 | O=P(O)(O)CCCNCc1ccc(CCCCCCCc2ccccc2)c2cccnc12 [Compound 5, [3-({[5-(7-phenylheptyl)quinolin-8-yl]methyl}amino)propyl]phosphonic acid] |
| 138 | CCCCCCCC/C=C/c1ccc(CNCCCP(=O)(O)O)c2ccccc12 [Compound 15, {3-[({4-[(1E)-dec-1-en-1-yl]-1-naphthyl}methyl)amino]propyl}phosphonic acid] |
| 5.59 | O=P(O)(O)CCCNCc1ccc(CCCCCCc2ccccc2)c2ccccc12 [Compound 19, [3-({[4-(6-phenylhexyl)-1-naphthyl]methyl}amino)propyl]phosphonic acid] |
